≈ marks a conversion by molar mass, not a printed value. Entries after “also recorded” stand apart in the source; their conditions may differ.
Tests used:
Z. tritici [1] = format: cell-based, Zymoseptoria tritici
C. albicans [2] = format: cell-based, Candida albicans
Candida glabrata = format: cell-based
Z. tritici mitochondria [3] = format: cell-based, Zymoseptoria tritici
Z. tritici mitochondria [4] = format: cell-based, Zymoseptoria tritici; conditions: for mitochondrial depolarisation / inhibition of mitochondrial respiration: Z. tritici
[5] = test system: Candida albicans mitochondria; format: cell-based
[6] = test system: Candida glabrata mitochondria; format: cell-based
[7] = test system: C109 human skin fibroblasts; test: Mitochondrial organization in human skin fibroblasts; format: cell-based
Protocol: The effects on mitochondria may account for the fungal specificity of C12-G+. To test this, mammalian skin C109 fibroblasts were treated with C12-G+ and monitored for its effect on mitochondrial shape and membrane potential.
Low toxicity to humans and in the environment is an important requirement for fungicides. The toxicity of C12-TPP+, C18-TMA+ and C18-DMS+ was therefore tested on C109 human skin fibroblasts. Mitochondrial organization and mitochondrial membrane potential were monitored after incubating with various concentrations of the compounds.

Daphnia magna [8] = test: Daphnia magna 30 minute treatment, TMRM mitochondrial potential; format: in vivo; conditions: 1 μg/ml for 30 minutes
Protocol: In addition, the toxicity of C12-G+, C18-TMA+ and C18-DMS+ on the water flea Daphnia magna was investigated. This freshwater crustacean is well-established as a reporter organism in toxicity tests. Firstly, Daphnia magna was treated with 1 μg/ml of C12-G+, C18-TMA+ and C18-DMS+ for 30 minutes, followed by visualization of the mitochondrial potential by TMRM.

Daphnia magna [9] = test: Daphnia magna 24 h toxicity (motility, escape response as indicator of mortality); format: in vivo
Protocol: Next, water fleas were treated for 24 h with various concentrations of all three SACCs and their motility behaviour and “escape response” monitored as an indicator of mortality. […] Higher amounts of both C18 SACCs eventually killed Daphnia magna, with C18-TMA+ being 1.8-times more toxic than C18-DMS+.

Z. tritici cells [10] = format: cell-based, Zymoseptoria tritici
U. maydis [11] = format: cell-based, Ustilago maydis
C. albicans [12] = format: cell-based, Candida albicans; remark: listed apart in the source
C. glabrata = format: cell-based, Candida glabrata
Z. tritici cells [13] = test: Programmed cell death, CaspACE FITC-VAD-FMK with propidium iodide co-staining; format: cell-based, Zymoseptoria tritici; conditions: 24 h treatment
Z. tritici cells [14] = test: Programmed cell death, Annexin-V-fluorescein staining; format: cell-based, Zymoseptoria tritici
[15] = test system: Z. tritici (strain IPO323); design: species or system Zymoseptoria tritici on wheat; conditions: in vivo
M. oryzae (strain Guy11) = format: in vivo, Magnaporthe oryzae on rice; conditions: rice; for protection at high concentrations: M. oryzae, high concentrations (75 and 100 μg/ml); for disease symptom development: sprayed 24 h before M. oryzae, 4 days, concentration-dependent
rice leaves [16] = test: Early plant defence response, diaminobenzidine (DAB) staining of H2O2; format: in vivo; conditions: 150 μg/ml SACC (salicylic acid 15 mM), 6 h
wheat leaves = conditions: in vivo
rice leaves [17] = conditions: in vivo
[18] = test system: C109 human skin fibroblasts; test: Mitochondrial membrane potential in human skin fibroblasts
Z. tritici [19] = test: Growth inhibition on agar plates supplemented with compound; format: cell-based, Zymoseptoria tritici
U. maydis [20] = test: as above; format: cell-based, Ustilago maydis
U. maydis [21] = test: Live/dead staining in liquid culture; format: cell-based, Ustilago maydis
[22] = test system: Z. tritici plasma membrane; format: cell-based, Zymoseptoria tritici
[23] = test system: U. maydis plasma membrane; test: Plasma membrane integrity with GFP-Sso1 marker (patches, photo-bleaching recovery); format: cell-based, Ustilago maydis
Z. tritici [24] = test: Plasma membrane potential, DiBAC4(3) staining; format: cell-based, Zymoseptoria tritici; conditions: high concentrations
Protocol: (§1) Drug-induced leakage of ions from the cell was then determined by visualizing alterations of the membrane potential in C12-G+-treated cells, using the voltage-sensitive fluorescent probe bis-(1,3-dibutylbarbituric acid) trimethine oxonol, DiBAC4(3), which only stains depolarised cells. […] Therefore, the effect on the plasma membrane is most likely not the primary MoA of C12-G+ in fungi.

U. maydis [25] = test: Plasma membrane potential, DiBAC4(3) staining; format: cell-based, Ustilago maydis; conditions: high concentrations
Protocol: as §1

U. maydis mitochondria = test: Mitochondrial depolarisation, TMRM staining; format: cell-based, Ustilago maydis; conditions: low amounts
cellular respiration = test: Cellular oxygen consumption in cell suspensions; format: cell-based, U. maydis

octadecyldimethylsulfonium [C18-DMS+]
killing (LIVE/DEAD staining) (Z. tritici [1]; 12-14 h exposure, 10 μg/ml): efficiently killed | killing (LIVE/DEAD staining) (C. albicans [2]): efficiently killed | relative toxicity in C. albicans (C. albicans [2]): most toxic | killing (LIVE/DEAD staining) (Candida glabrata): efficiently killed | EC50 on Z. tritici (mitochondrial fragmentation) (Z. tritici mitochondria [3]): 1.72 µg/mL | mitochondrial depolarisation / inhibition of mitochondrial respiration (Z. tritici mitochondria [4]): showed significant inhibition of mitochondrial respiration | mitochondrial potential [5]: reduce the mitochondrial potential | mitochondrial potential [6]: reduce the mitochondrial potential | human mitochondria less sensitive (mitochondrial morphology) ([7]; printed as compared to C12-G+): ~29 times | mitochondrial potential (TMRM) in Daphnia magna (Daphnia magna [8]): little or no effect on mitochondrial potential | motility of Daphnia magna (Daphnia magna [8]): did not affect the motility | effect on Daphnia magna (Daphnia magna [9]; at ~1 μg/ml): little effect at this concentration | mROS levels (Z. tritici cells [10]): significantly induced; also recorded: induced mROS production further | mROS levels with complex I inhibitor rotenone (Z. tritici cells [10]): did not increase mROS levels | mROS levels (U. maydis [11]): significantly induced | mROS levels (C. albicans [12]): significantly induced | mROS levels (C. glabrata): significantly induced | early apoptotic cells (CaspACE FITC-VAD-FMK positive, propidium iodide negative) (Z. tritici cells [13]): significant increase in early apoptotic cells | Annexin-V-fluorescein membrane-associated fluorescence in apoptotic cells (Z. tritici cells [14]): only found in C18-DMS+-treated cells | disease symptom development [15]: Symptom development was inhibited | protection at high concentrations [15]: almost abolished symptom developments | protection at high concentrations (M. oryzae (strain Guy11)): almost abolished symptom developments | disease symptom development (M. oryzae (strain Guy11)): Symptom development was inhibited | peroxide production / DAB reaction (plant defence) (rice leaves [16]): much stronger DAB reaction | chlorosis or necrosis (phytotoxicity) (wheat leaves): none of the SACCs induced chlorosis or necrosis | chlorosis or necrosis (phytotoxicity) (rice leaves [17]): none of the SACCs induced chlorosis or necrosis | higher specificity for fungi than for humans (inhibition of mitochondrial respiration) ([18]; Z. tritici vs human cells): ~53 times

CCCCCCCCCCCC[N+](C)(C)C [C12-TMA+, dodecyltrimethylammonium]
EC50 on Z. tritici (mitochondrial fragmentation) (Z. tritici mitochondria [3]): 3.85 µg/mL

C=C(C)[C@H]1Cc2c(ccc3c2O[C@@H]2COc4cc(OC)c(OC)cc4[C@@H]2C3=O)O1 [rotenone]
mROS levels (Z. tritici cells [10]): decreased mROS levels | more effective in decreasing mROS than C12-G+ and C18-TMA+ (Z. tritici cells [10]): 3-4 times

antimycin A
mROS levels (Z. tritici cells [10]): increase of mROS

CCCCCCCCCCCC[S+](C)C [C12-DMS+, dodecyldimethylsulfonium]
EC50 on Z. tritici (mitochondrial fragmentation) (Z. tritici mitochondria [3]): 7.39 µg/mL | mROS levels (Z. tritici cells [10]): did not increase mROS levels

CCCCCCCCCCCC[P+](c1ccccc1)(c1ccccc1)c1ccccc1 [C12-TPP+, dodecyltriphenylphosphonium]
EC50 on Z. tritici (mitochondrial fragmentation) (Z. tritici mitochondria [3]): 6.63 µg/mL | mitochondrial depolarisation / inhibition of mitochondrial respiration (Z. tritici mitochondria [4]): showed significant inhibition of mitochondrial respiration | EC, human mitochondrial organization ([7]; C109 fibroblasts): 5.62 µg/mL | effect on human mitochondrial organization ([7]; C109 fibroblasts, various concentrations): little effect on human mitochondrial organization | EC50, human mitochondrial respiration ([18]; C109 fibroblasts): 0.355 µg/mL

O=C(O)c1ccccc1O [salicylic acid]
peroxide production / DAB reaction (plant defence) (rice leaves [16]): brown colouring

CCCCCCCCCCCC[N+](CC)(CC)CC [C12-TEA+, dodecyltriethylammonium]
EC50 on Z. tritici (mitochondrial fragmentation) (Z. tritici mitochondria [3]): 2.38 µg/mL

CCCCCCCCCCCCNC(=N)N [C12-G+, dodecylguanidinium]
Z. tritici more sensitive than U. maydis (growth inhibition) (Z. tritici [19]): ~4 times | EC50, concentration at 50% inhibition of growth (Z. tritici [19]; Z. tritici): 0.6 µg/mL | EC50, concentration at 50% inhibition of growth (U. maydis [20]): 2.3 µg/mL | cell viability (Z. tritici [1]; 30-45 minutes incubation, up to 100 μg/ml): most cells were still alive | cells killed (Z. tritici [1]; after 1 h at 100 μg/ml): > 80% | cell viability (U. maydis [21]; 30-45 minutes incubation, up to 50 μg/ml): most cells were still alive | killing (U. maydis [21]; after 1 h at 100 μg/ml): ~15% | EC50, effect on fungal plasma membrane ([22]; Z. tritici): 20 to 50 µg/mL | lateral mobility of GFP-Sso1 ([22]; Z. tritici): this effect was not observed | Z. tritici less sensitive than U. maydis (GFP-Sso1 patches) ([22]; at 50 μg/ml): ~2 times | formation of GFP-Sso1 patches at the cell periphery ([22]; high concentrations, Z. tritici): induced the formation of GFP-Sso1 | formation of GFP-Sso1 patches at the cell periphery ([23]; high concentrations): induced the formation of GFP-Sso1 | lateral mobility of GFP-Sso1 ([23]; ≥10 μg/ml): significantly reduced the mobility of GFP-Sso1 | number of depolarised cells (DiBAC4(3)) (Z. tritici [24]): had only little effect | number of depolarised cells (DiBAC4(3)) (U. maydis [25]): increased the number of depolarised cells | EC50 on Z. tritici (mitochondrial fragmentation) (Z. tritici mitochondria [3]): 6.63 µg/mL (≈ 29.2 µM) | Z. tritici more sensitive than U. maydis (mitochondrial membrane potential) (Z. tritici mitochondria [4]): ~4 times | mitochondrial depolarisation (TMRM) (U. maydis mitochondria): depolarised mitochondria | cellular oxygen consumption (cellular respiration): inhibits cellular respiration | effect on mitochondrial organization ([7]; beyond 20 μg/ml): caused organelle fragmentation and swollen cristae | effect on mitochondrial organization ([7]; concentrations up to 20 μg/ml): little effect on mitochondrial organization | mitochondrial potential (TMRM) in Daphnia magna (Daphnia magna [8]): lost most signal | motility of Daphnia magna (Daphnia magna [8]): did not affect the motility | concentration that killed all Daphnia magna (Daphnia magna [9]): ~1000 ng/mL | antimycin A-induced mROS in the presence of compound (Z. tritici cells [10]): significantly reduced | mROS levels (Z. tritici cells [10]): decreased mROS concentrations; also recorded: significantly reduced mROS | early apoptotic cells (CaspACE FITC-VAD-FMK positive, propidium iodide negative) (Z. tritici cells [13]): Only a few apoptotic cells | disease symptom development [15]: Symptom development was inhibited | protection at high concentrations [15]: does not fully suppress; also recorded: did not fully suppress infection | protection at high concentrations (M. oryzae (strain Guy11)): does not fully suppress; also recorded: did not fully suppress infection | disease symptom development (M. oryzae (strain Guy11)): Symptom development was inhibited | peroxide production / DAB reaction (plant defence) (rice leaves [16]): slight peroxide production | chlorosis or necrosis (phytotoxicity) (wheat leaves): none of the SACCs induced chlorosis or necrosis | chlorosis or necrosis (phytotoxicity) (rice leaves [17]): none of the SACCs induced chlorosis or necrosis | effect on mitochondrial membrane potential ([18]; C109 fibroblasts): modest effect

— patent US12635689B2, “Antifungal compositions” (priority 2019, dated 2026)
